Experimental data reported in paper PMC10120462, “Styrylquinazoline derivatives as ABL inhibitors selective for different DFG orientations” (Journal of Enzyme Inhibition and Medicinal Chemistry, 2023).
Counter-ions that a name gives are not always drawn.

Experiments:
[1] = biological target: T1, CSK (Homo sapiens, UniProt P41240); test: Tyrosine kinase assay (Kinase Selectivity System TK-2, ADP-Glo); format: biochemical; details: 1 h incubation, mean ± SD of four experiments
T1 construct: purchased Promega

[2] = biological target: T2, ABL (Homo sapiens, UniProt P00519); test: as above; format: biochemical; details: 1 h incubation, mean ± SD of four experiments; for Inhibition of tyrosine kinase activity [%] ABL: 0.5 μM
T2 construct: purchased Promega
T2 sequence (P00519 whole entry): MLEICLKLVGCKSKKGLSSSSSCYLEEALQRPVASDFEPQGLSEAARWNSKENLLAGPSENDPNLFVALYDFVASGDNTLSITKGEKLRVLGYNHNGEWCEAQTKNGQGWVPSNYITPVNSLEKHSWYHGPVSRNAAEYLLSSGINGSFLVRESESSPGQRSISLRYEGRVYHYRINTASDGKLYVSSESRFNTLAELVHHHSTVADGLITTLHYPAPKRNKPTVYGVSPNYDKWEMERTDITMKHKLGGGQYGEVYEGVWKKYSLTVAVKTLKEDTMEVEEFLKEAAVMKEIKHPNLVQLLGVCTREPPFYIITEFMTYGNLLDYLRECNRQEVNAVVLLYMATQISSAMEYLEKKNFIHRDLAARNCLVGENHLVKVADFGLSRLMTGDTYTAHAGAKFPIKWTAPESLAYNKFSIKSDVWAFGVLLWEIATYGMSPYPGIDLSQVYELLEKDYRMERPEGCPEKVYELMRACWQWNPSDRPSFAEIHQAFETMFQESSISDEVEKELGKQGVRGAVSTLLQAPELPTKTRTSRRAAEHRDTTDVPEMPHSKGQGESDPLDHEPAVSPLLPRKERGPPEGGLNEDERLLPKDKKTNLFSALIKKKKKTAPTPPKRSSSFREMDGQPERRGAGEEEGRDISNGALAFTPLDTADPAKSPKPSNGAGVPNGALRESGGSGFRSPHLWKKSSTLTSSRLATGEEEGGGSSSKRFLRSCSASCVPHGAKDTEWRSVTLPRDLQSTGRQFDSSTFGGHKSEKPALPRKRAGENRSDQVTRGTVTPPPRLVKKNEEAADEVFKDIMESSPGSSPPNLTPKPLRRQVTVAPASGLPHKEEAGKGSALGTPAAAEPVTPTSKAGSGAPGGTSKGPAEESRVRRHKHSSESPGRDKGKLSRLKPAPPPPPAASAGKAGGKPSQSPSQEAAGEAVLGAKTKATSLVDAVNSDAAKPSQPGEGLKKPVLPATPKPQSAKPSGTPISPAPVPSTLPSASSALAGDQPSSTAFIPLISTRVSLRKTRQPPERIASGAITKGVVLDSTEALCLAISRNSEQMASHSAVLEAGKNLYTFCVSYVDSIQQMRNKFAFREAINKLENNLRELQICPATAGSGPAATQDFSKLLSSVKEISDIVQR

[3] = test system: NHDF; test: Cytotoxicity studies (MTS), normal fibroblasts; format: cell-based; details: 72 h, normal human fibroblasts, read-out: Antiproliferative activity IC50 NHDF
From the text: (§1) In contrast, the other cell lines studied represent common cancers found in the human population. Nevertheless, these cell lines are characterised by a different landscape of kinase expression, as reported in[36]. In chronic leukaemia cells, an aberration of the Philadelphia chromosome is common in which a fragment of chromosome 9 is displaced to chromosome 22, leading to the formation of the oncogenic protein BCR-ABL. The altered structure of the protein leads to abnormal activity that promotes excessive growth and differentiation of cells even in the absence of growth factors, as well as inhibition of apoptosis and formation of metastases. Moreover, the status of the TP53 gene in leukaemia is not insignificant. Mutations of the TP53 gene occur in more than 50% of all cancers, leading to increased metastasis and an overall poor prognosis[38]^,[39]. The p53 protein encoded by this gene plays a pivotal role in controlling cell division or cell fate when damage is detected. […] Therefore, interaction between the signalling network of the BCR-ABL pathway and p53 often results in an impairment of p53 function and survival[43]^,[44]. […] Selectivity studies were performed on normal human fibroblast – NHDF cell line.
(§2) M. Rusin from the Maria Sklodowska-Curie Memorial Cancer Centre and Institute of Oncology in Gliwice, Poland. […] G. Kramer-Marek from the Institute of Cancer Research in London, United Kingdom. The human suspension chronic myeloids leukaemia cell line K562 and the pancreatic ductal adenocarcinoma cell line PANC-1 were purchased from Merck. The normal human dermal fibroblasts cell line NHDF were obtained from PromoCell. All adherent cancer cell lines were cultured in Dulbecco’s Modified Eagle’s medium (DMEM) supplemented with 10% heat-inactivated foetal bovine serum – FBS (all from Merck). […] Each complete medium contained a mixture of two antibiotics - penicillin and streptomycin (1% v/v; Gibco). Cell lines were cultured at 37 °C with 5% CO2 humidified atmosphere.
(§3) The assay was carried out after 72 h of incubation with different concentrations of the tested compounds. Then DMEM without phenol red was added to each well with CellTiter 96®AQueous One Solution-MTS (Promega) solution and incubated for 1 h or 3 h (PANC-1) at 37 °C. The optical densities of the samples were measured at 490 nm using a multi-plate reader (Synergy 4, BioTek). […] Each compound was tested in triplicate in a single experiment and each experiment was performed three or four times.

[4] = biological target: T3, Lck (Homo sapiens, UniProt P06239); test: Tyrosine kinase assay (Kinase Selectivity System TK-2, ADP-Glo); format: biochemical; details: 1 h incubation, mean ± SD of four experiments
T3 construct: purchased Promega
T3 sequence (P06239 whole entry): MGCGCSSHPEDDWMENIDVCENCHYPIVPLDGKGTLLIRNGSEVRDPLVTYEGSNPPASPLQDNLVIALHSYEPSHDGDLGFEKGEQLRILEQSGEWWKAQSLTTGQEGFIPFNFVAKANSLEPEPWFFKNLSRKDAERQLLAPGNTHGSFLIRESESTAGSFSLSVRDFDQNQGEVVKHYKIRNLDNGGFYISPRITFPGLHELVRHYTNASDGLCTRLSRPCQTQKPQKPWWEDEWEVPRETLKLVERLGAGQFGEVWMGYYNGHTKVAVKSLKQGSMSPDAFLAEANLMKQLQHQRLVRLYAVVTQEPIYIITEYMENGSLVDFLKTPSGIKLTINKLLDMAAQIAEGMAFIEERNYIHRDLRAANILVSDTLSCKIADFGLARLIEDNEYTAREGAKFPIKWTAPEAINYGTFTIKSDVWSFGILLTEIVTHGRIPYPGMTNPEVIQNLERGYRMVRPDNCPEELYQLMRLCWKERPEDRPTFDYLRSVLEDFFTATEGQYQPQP

[5] = biological target: T4, Src (Homo sapiens, UniProt P12931); test: as above; format: biochemical; details: 1 h incubation, mean ± SD of four experiments
T4 construct: purchased Promega
T4 sequence (P12931 whole entry): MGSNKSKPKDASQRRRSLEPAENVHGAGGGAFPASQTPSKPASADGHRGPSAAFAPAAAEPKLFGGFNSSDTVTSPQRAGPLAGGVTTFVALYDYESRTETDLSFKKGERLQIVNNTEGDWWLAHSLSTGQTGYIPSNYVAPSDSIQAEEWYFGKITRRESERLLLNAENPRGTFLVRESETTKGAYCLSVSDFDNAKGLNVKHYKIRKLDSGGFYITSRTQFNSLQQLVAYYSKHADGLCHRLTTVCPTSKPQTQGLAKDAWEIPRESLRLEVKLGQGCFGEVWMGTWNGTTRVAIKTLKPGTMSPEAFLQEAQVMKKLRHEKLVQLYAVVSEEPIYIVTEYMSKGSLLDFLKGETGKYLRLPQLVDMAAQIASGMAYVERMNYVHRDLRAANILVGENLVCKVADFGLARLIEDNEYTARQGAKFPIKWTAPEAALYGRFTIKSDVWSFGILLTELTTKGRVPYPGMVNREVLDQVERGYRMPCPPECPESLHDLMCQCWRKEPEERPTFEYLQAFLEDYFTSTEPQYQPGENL

[6] = biological target: T5, Lyn B (Homo sapiens, UniProt P07948); test: as above; format: biochemical; details: 1 h incubation, mean ± SD of four experiments
T5 construct: purchased Promega
T5 sequence (P07948 1-491 isoform P07948-2): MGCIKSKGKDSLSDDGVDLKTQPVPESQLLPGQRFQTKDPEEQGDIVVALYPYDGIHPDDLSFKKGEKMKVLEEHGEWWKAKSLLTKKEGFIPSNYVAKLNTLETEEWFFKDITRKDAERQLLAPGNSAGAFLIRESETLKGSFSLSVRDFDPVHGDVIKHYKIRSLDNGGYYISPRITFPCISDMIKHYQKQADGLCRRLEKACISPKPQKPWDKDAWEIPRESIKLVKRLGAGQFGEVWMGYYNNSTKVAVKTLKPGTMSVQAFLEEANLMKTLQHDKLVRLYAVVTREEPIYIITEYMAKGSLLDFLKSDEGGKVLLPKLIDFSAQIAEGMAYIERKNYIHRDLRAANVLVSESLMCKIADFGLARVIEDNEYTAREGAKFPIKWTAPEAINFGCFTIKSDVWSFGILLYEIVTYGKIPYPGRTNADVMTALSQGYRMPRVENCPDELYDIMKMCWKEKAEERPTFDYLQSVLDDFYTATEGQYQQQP

[7] = biological target: T6, Fyn A (Homo sapiens, UniProt P06241); test: as above; format: biochemical; details: 1 h incubation, mean ± SD of four experiments
T6 construct: purchased Promega
T6 sequence (P06241 whole entry): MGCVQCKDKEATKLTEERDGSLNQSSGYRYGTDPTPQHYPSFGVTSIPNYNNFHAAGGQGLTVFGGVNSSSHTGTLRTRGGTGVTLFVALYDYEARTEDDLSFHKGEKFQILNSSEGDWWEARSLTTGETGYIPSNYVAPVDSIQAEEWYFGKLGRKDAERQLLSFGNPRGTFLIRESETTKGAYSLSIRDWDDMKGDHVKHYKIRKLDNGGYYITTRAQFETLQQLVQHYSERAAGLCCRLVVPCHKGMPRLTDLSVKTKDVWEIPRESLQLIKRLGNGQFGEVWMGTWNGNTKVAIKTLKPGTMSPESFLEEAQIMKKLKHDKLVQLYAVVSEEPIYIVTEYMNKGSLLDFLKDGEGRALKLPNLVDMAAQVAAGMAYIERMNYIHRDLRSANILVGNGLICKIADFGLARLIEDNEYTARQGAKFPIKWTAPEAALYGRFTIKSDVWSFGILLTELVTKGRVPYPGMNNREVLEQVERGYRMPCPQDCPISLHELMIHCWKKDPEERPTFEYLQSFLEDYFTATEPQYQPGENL
From the text: All newly synthesised derivatives were screened for their inhibitory potential towards eight non-receptor tyrosine kinases, such as ABL, BTK, BRK and Src family kinases, such as CSK, Lyn, Lck, Fyn and Src. […] To facilitate the analysis of the structure and enzymatic activity, all tested compounds were divided into four subgroups based on the main structural scaffolds (the general structure of each group is shown in the second column of Table 1). Series A, B, and C were subdivided according to the S^4-aryl substituent, while D represents the different styryl groups at the C^2-quinazoline position.
Herein, we used a kinase assay that contained fully expressed kinases with their regulatory domains, which are responsible for autoinhibition. The proteins are present in their unphosphorylated form and the procedure required supplementation with ATP. Importantly, autophosphorylation of ABL is dependent on […] concentration of the protein. Thus, our experimental conditions reflect the cellular process to be simulated. The luminescence signal detected after one hour of incubation with a peptide substrate was a measure of inhibition. Under these conditions, the question of whether the inhibitors tested bind to the ortho or allosteric site of the protein could be answered. […] To test this hypothesis, further molecular docking experiments were performed to more precisely determine the binding of the tested compounds to the ABL kinase.
To determine the inhibition of non-receptor tyrosine kinases, assays were performed using the kinase selectivity system TK-2 and the ADP-Glo Kinase Assay (both from Promega). The protocol was previously developed by our group and described in reports[12]^,[36]. Experiments were performed at least four times. Data are expressed as percentage of tyrosine kinase inhibitory activity after treatment with the derivatives tested.

[8] = biological target: T7, BTK (Homo sapiens, UniProt Q06187); test: as above; format: biochemical; details: 1 h incubation, mean ± SD of four experiments
T7 construct: purchased Promega
T7 sequence (Q06187 whole entry): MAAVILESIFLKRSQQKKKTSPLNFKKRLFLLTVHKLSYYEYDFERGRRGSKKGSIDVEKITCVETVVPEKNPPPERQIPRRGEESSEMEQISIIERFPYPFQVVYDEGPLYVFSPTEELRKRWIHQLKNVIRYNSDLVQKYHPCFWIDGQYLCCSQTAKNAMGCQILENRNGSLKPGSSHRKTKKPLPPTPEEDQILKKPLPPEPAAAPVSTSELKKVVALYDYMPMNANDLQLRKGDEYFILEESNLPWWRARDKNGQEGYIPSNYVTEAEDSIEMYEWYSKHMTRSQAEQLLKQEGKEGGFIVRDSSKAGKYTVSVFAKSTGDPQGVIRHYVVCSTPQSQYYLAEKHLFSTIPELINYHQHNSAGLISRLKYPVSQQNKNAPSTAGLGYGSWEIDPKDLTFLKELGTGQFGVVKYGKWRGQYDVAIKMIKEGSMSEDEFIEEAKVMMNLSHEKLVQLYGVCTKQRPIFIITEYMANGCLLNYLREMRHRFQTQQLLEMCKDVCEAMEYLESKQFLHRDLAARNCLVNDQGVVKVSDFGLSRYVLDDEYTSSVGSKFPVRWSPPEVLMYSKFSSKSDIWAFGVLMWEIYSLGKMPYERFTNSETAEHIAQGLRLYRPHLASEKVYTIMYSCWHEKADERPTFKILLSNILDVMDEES

[9] = biological target: T8, BRK (Homo sapiens, UniProt Q13882); test: as above; format: biochemical; details: 1 h incubation, mean ± SD of four experiments
T8 construct: purchased Promega
T8 sequence (Q13882 whole entry): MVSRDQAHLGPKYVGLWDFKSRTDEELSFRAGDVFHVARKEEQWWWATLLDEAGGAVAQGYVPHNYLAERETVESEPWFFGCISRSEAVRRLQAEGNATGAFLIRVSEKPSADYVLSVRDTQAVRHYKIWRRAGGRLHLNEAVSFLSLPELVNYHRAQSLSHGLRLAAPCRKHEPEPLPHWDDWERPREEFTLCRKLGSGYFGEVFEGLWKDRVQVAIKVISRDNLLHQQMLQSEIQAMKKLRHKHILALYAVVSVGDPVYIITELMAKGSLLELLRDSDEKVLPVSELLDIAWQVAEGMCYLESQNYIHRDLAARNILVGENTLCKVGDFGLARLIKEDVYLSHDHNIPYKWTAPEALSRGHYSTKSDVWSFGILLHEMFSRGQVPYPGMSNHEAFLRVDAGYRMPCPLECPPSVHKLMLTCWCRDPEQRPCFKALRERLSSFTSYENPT

[10] = test system: PANC-1; test: Cytotoxicity studies (MTS), antiproliferative activity; format: cell-based, human; details: Homo sapiens, PANC-1; 72 h, MTS
From the text: as §1, §2, §3

[11] = test system: HCT 116 p53−/−; test: as above; format: cell-based, human; details: Homo sapiens, HCT-116; 72 h, MTS
From the text: as §1, §2, §3

[12] = test system: U-251; test: as above; format: cell-based, human; details: for IC50: Homo sapiens, U-251, 72 h, MTS
From the text: as §1, §2, §3

[13] = test system: A549; test: as above; format: cell-based, human; details: for IC50: Homo sapiens, A549, 72 h, MTS
From the text: as §1, §2, §3

[14] = test system: HCT 116 p53+/+; test: as above; format: cell-based, human; details: for IC50: Homo sapiens, HCT-116, 72 h, MTS
From the text: as §1, §2, §3

[15] = test system: K562; test: as above; format: cell-based, human; details: for IC50: Homo sapiens, K562, 72 h, MTS
From the text: as §1, §2, §3

[16] = test system: MCF-7; test: as above; format: cell-based, human; details: for IC50: Homo sapiens, MCF7, 72 h, MTS
From the text: as §1, §2, §3

| SMILES | inhibition at 0.5 µM [1] | inhibition at 0.5 µM [2] | inhibition at 0.5 µM [4] | inhibition at 0.5 µM [5] | inhibition at 0.5 µM [6] | inhibition at 0.5 µM [7] | inhibition at 0.5 µM [8] | inhibition at 0.5 µM [9] | IC50 [3] | IC50 [10] | IC50 [11] | IC50 [12] | IC50 [13] | IC50 [14] | IC50 [15] | further results |
| --- | --- | --- | --- | --- | --- | --- | --- | --- | --- | --- | --- | --- | --- | --- | --- | --- |
| COc1ccc(/C=C/c2nc(Sc3cc4c(cc3Br)OCO4)c3ccccc3n2)c(OC)c1 [IS17, 5-{2-[(E)-2–(2,4-dimethoxyphenyl)ethenyl]quinazolin-4-ylthio}-6-bromo-2H-1,3-benzodioxole] | 7.77 ± 3.16% | 11.9 ± 2.86% | 0% | 21 ± 1.82% | 0% | 19.8 ± 3.51% | 9.58 ± 0.62% | 0% | 21.3 ± 0.8 µM | > 15 µM | > 15 µM | 20.2 ± 0.9 µM | > 15 µM | > 15 µM | > 10 µM | Inhibition of tyrosine kinase activity [%] ABL [2]: inactive |
| COc1ccccc1/C=C/c1nc(Sc2ccccc2Br)c2ccccc2n1 [IS4, 2-[(E)-2–(2-methoxyphenyl)ethenyl]-4–(2-bromophenylthio)quinazoline] | 17.4 ± 6.31% | 29.8 ± 0.95% | 0% | 18.5 ± 1.07% | 3.39 ± 0.47% | 34.1 ± 2.53% | 45.9 ± 7.54% | 0% | > 25 µM | > 25 µM | > 10 µM | > 15 µM | > 15 µM | > 10 µM | > 15 µM | Inhibition of tyrosine kinase activity [%] BTK ([8]; 0.5 μM): moderate activity |
| COc1ccccc1/C=C/c1nc(Sc2cc3c(cc2Br)OCO3)c2ccccc2n1 [IS11, 5-{2-[(E)-2–(2-methoxyphenyl)ethenyl]quinazolin-4-ylthio}-6-bromo-2H-1,3-benzodioxole] | 50.7 ± 5.6% | 18.4 ± 2.37% | 0% | 40.9 ± 1.77% | 0.86 ± 0.23% | 19.1 ± 3.57% | 2.87 ± 0.67% | 0% | 21.7 ± 1.53 µM | > 10 µM | > 15 µM | > 5 µM | > 5 µM | > 15 µM | > 2.5 µM | Inhibition of tyrosine kinase activity [%] ABL [2]: inactive |
| COc1ccc(/C=C/c2nc(NCCCN(C)C)c3ccccc3n2)cc1 [CP-31398, N'-[2-[2–(4-methoxyphenyl)ethenyl]-4-quinazolinyl]-N,N-dimethyl-1,3-propanediamine dihydrochloride, reference compound] | – | – | – | – | – | 30.6 ± 7.83% | 36.8 ± 3.66% | – | 12.3 ± 0.54 µM | > 25 µM | 26.3 ± 1.41 µM | 18.8 ± 1.65 µM | > 25 µM | 18.6 ± 0.92 µM | 3.09 ± 0.36 µM | IC50 [16]: 27 ± 2.1 µM |

More lines, main results first:

| inhibition at 0.5 µM [1] | inhibition at 0.5 µM [2] | inhibition at 0.5 µM [4] | inhibition at 0.5 µM [5] | inhibition at 0.5 µM [6] | inhibition at 0.5 µM [7] | inhibition at 0.5 µM [8] | inhibition at 0.5 µM [9] | SMILES | IC50 [3] | IC50 [10] | IC50 [11] | IC50 [12] | IC50 [13] | IC50 [14] | IC50 [15] | further results |
| --- | --- | --- | --- | --- | --- | --- | --- | --- | --- | --- | --- | --- | --- | --- | --- | --- |
| 15.5 ± 2.88% | 35.6 ± 1.5% | 48.1 ± 6.55% | 0% | 0% | 50.1 ± 3.49% | 13.1 ± 2.69% | 0% | COc1ccc(/C=C/c2nc(Sc3ccccc3Cl)c3ccccc3n2)c(OC)c1 [IS16, 2-[(E)-2–(2,4-dimethoxyphenyl)ethenyl]-4–(2-chlorophenylthio)quinazoline] | 14.6 ± 1.27 µM | > 2.5 µM | > 10 µM | 20.9 ± 1.63 µM | 13.4 ± 0.6 µM | > 15 µM | 7.83 ± 0.753 µM | IC50 [16]: > 25 µM; Selectivity index MCF-7 ([16]; versus NHDF): 1.00; Selectivity index U-251 ([12]; versus NHDF): 1.20; Selectivity index A549 ([13]; versus NHDF): 1.86; Selectivity index HCT 116 p53+/+ ([14]; versus NHDF): 1.67; Selectivity index K562 ([15]; versus NHDF): 3.20 |
| 39.3 ± 4.74% | 45.9 ± 2.63% | 0% | 8.17 ± 1.71% | 0% | 25.7 ± 2.29% | 53.5 ± 1.33% | 0% | COc1cccc(Sc2nc(/C=C/c3ccccc3OC)nc3ccccc23)c1 [IS7, 2-[(E)-2–(2-methoxyphenyl)ethenyl]-4–(3-methoxyphenylthio)quinazoline] | > 20 µM | > 15 µM | > 15 µM | > 15 µM | > 15 µM | > 15 µM | > 10 µM | – |
| 39.2 ± 6.47% | 35.9 ± 7.23% | 60.7 ± 5.1% | 54% | 57% | 52 ± 3.43% | 28.7 ± 2.94% | 19.3 ± 4.65% | COc1ccccc1/C=C/c1nc(Sc2ccc(SC)cc2)c2ccccc2n1 [IS9, 2-[(E)-2–(2-methoxyphenyl)ethenyl]-4-[4-(methylthio)phenylthio]quinazolin] | > 25 µM | > 25 µM | > 20 µM | > 10 µM | > 15 µM | > 20 µM | > 25 µM | Inhibition of tyrosine kinase activity [%] Src ([5]; 0.5 μM): 54.23 ± 3.07%; Inhibition of tyrosine kinase activity [%] Lyn B ([6]; 0.5 μM): 57.44 ± 1.76% |
